Test results as given in patent publication US20240279202A1 (NURIX THERAPEUTICS, INC., priority 2021, published 2024).

Tests used:
[1] = Mouse PK analysis (blood/plasma concentration after oral administration); assay type: in vivo; conditions: mouse; mice, oral, plasma
In short: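 Mice were dosed by oral gavage at 90 mg/kg with blood sampled at 1, 2 and 6 h; a second study used oral dosing with plasma taken at 6 or 24 h. Plasma levels were measured by LC/MS/MS (acetonitrile precipitation, internal-standard curve, positive ESI MRM), and Cmax, Tmax and AUClast were derived by noncompartmental analysis.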

ITK = target: T1, ITK (Homo sapiens, UniProt Q08881); experiment: ITK degradation HiBiT assay; assay type: cell-based; set-up: expressed in transfected cells; host or cells: Molt4 (ATCC CRL-1552), monoclonal clone 1C10, engineered to carry the HiBiT tag; conditions: 4 hrs; for DC50: C-terminal HiBiT-tagged Molt4 cells; for Dmax: MOLT-4, C-terminal HiBiT-tagged Molt4 cells
T1 sequence (Q08881 1-620): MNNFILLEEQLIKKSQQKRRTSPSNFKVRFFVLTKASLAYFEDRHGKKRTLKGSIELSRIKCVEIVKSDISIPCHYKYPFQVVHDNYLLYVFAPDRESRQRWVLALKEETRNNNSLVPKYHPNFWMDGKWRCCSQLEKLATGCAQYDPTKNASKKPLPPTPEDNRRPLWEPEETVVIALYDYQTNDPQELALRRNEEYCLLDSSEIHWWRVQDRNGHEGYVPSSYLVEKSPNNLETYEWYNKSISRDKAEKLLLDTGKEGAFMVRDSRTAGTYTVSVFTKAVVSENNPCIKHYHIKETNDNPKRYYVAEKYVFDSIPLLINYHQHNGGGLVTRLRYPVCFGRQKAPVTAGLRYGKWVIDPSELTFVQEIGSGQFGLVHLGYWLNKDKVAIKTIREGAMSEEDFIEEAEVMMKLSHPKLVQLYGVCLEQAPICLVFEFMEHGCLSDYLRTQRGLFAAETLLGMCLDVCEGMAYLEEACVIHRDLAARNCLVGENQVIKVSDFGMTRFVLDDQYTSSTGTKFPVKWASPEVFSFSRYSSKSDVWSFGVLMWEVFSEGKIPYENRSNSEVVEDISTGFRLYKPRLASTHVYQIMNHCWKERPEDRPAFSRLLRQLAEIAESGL
In short: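 C-terminal HiBiT-tagged Molt4 cells (clone 1C10) treated 4 h at 32° C with an 11-point, 5-fold compound dilution series (0.5% DMSO). HiBiT lytic detection with LgBiT then luminescence read; % ITK remaining versus concentration fit by four-parameter variable-slope model to give DC50 and Dmax.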

Row | Structure (SMILES) | AUC(0-t) [1] [µM·h] | Cmax [1] [nM] | Tmax [1] [h] | DC50 (ITK) [nM] | Dmax (ITK) [%]
1 | Cn1c(=O)n([C@@H]2CCC(=O)NC2=O)c2cccc(N3CCC(CN4CCN(C(=O)c5ccc6cc(-c7n[nH]c8c7CCC(C)(C)C8)[nH]c6c5)CC4)CC3)c21 [Compound 48, (R)-3-(4-(4-((4-(2-(6,6-dimethyl-4,5,6,7-tetrahydro-1H-indazol-3-yl)-1H-indole-6-carbonyl)piperazin-1-yl)methyl)piperidin-1-yl)-3-methyl-2-oxo-2,3-dihydro-1H-benzo[d]imidazol-1-yl)piperidine-2,6-dione] | 8.42 | 2440 | 6 | 5.2 | 86
2 | C[C@@H](C(=O)N(C)c1ccc2cc(-c3n[nH]c4c3C[C@@H]3C(F)(F)[C@]3(C)C4)[nH]c2c1)N1CCN(CC2CCN(c3cccc4c3n(C)c(=O)n4C3CCC(=O)NC3=O)CC2)CC1 (stereo partly drawn) [Compound 65, (2S)—N-(2-((4aS,5aR)-5,5-difluoro-5a-methyl-1,4,4a,5,5a,6-hexahydrocyclopropa[f]indazol-3-yl)-1H-indol-6-yl)-2-(4-((1-(1-(2,6-dioxopiperidin-3-yl)-3-methyl-2-oxo-2,3-dihydro-1H-benzo[d]imidazol-4-yl)piperidin-4-yl)methyl)piperazin-1-yl)-N-methylpropanamide] | 1.38 | 405 | 6 | 0.35 | 80
3 | CN(C(=O)CCC1CCN(c2ccc(C(=O)NC3CCC(=O)NC3=O)nc2)C1)c1ccc2cc(-c3n[nH]c4c3C[C@@H]3C(F)(F)[C@]3(C)C4)[nH]c2c1 (stereo partly drawn) [Compound 69, 5-(3-(3-((2-((4aS,5aR)-5,5-difluoro-5a-methyl-1,4,4a,5,5a,6-hexahydrocyclopropa[f]indazol-3-yl)-1H-indol-6-yl)(methyl)amino)-3-oxopropyl)pyrrolidin-1-yl)-N-(2,6-dioxopiperidin-3-yl)picolinamide] | 1.26 | 283 | 3.5 |  | 42

Further lines, results first:

Row | AUC(0-t) [1] [µM·h] | Cmax [1] [nM] | Tmax [1] [h] | DC50 (ITK) [nM] | Dmax (ITK) [%] | Structure (SMILES)
4 | 9.38 | 2130 | 4 | 14 | 79 | Cn1c(=O)n([C@H]2CCC(=O)NC2=O)c2cccc(N3CCC(CN4CCN(C(=O)c5ccc6cc(-c7n[nH]c8c7CCC(C)(C)C8)[nH]c6c5)CC4)CC3)c21 [Compound 46, (S)-3-(4-(4-((4-(2-(6,6-dimethyl-4,5,6,7-tetrahydro-1H-indazol-3-yl)-1H-indole-6-carbonyl)piperazin-1-yl)methyl)piperidin-1-yl)-3-methyl-2-oxo-2,3-dihydro-1H-benzo[d]imidazol-1-yl)piperidine-2,6-dione]
5 | 1.74 | 526 | 4 | 0.55 | 71 | C[C@@H](C(=O)N(C)c1ccc2cc(-c3n[nH]c4c3C[C@@H]3C(F)(F)[C@]3(C)C4)[nH]c2c1)N1CCN(CC2CCN(c3ccc(C(=O)NC4CCC(=O)NC4=O)nc3)CC2)CC1 (stereo partly drawn) [Compound 66, 5-(4-((4-((S)-1-((2-((4aS,5aR)-5,5-difluoro-5a-methyl-1,4,4a,5,5a,6-hexahydrocyclopropa[f]indazol-3-yl)-1H-indol-6-yl)(methyl)amino)-1-oxopropan-2-yl)piperazin-1-yl)methyl)piperidin-1-yl)-N-(2,6-dioxopiperidin-3-yl)picolinamide]
6 | 0.02 | 9 | 4 | 0.12 | 86 | CN(C(=O)CN1CCC2(CC1)CCN(c1ccc3c(c1)C(=O)N(C1CCC(=O)NC1=O)C3=O)C2)c1ccc2cc(-c3n[nH]c4c3C[C@@H]3C(F)(F)[C@]3(C)C4)[nH]c2c1 (stereo partly drawn) [Compound 72, N-(2-((4aS,5aR)-5,5-difluoro-5a-methyl-1,4,4a,5,5a,6-hexahydrocyclopropa[f]indazol-3-yl)-1H-indol-6-yl)-2-(2-(2-(2,6-dioxopiperidin-3-yl)-1,3-dioxoisoindolin-5-yl)-2,8-diazaspiro[4.5]decan-8-yl)-N-methylacetamide]
